Data published in publication PMC7206119, “RIP1 inhibition blocks inflammatory diseases but not tumor growth or metastases” (Cell Death and Differentiation, 2019).

Key:
Test in all cases: biochemical
Parameters in all cases: DiscoverX kinase panel, active-site competition binding (KINOMEscan type), percent of control at one concentration
Conditions in all cases: competition binding, percent of control
[1] = biological target: T1, LZK (Homo sapiens, UniProt O43283)
T1 construct: gene MAP3K13

[2] = biological target: RIPK2 (Homo sapiens, UniProt O43353)
[3] = biological target: NEK5 (Homo sapiens, UniProt Q6P3R8)
[4] = biological target: EPHB4 (Homo sapiens, UniProt P54760)
[5] = biological target: PAK3 (Homo sapiens, UniProt O75914)
[6] = biological target: PLK2 (Homo sapiens, UniProt Q9NYY3)
[7] = biological target: T2, CDK4-cyclinD1 (Homo sapiens, UniProt P11802)
T2 construct: cyclinD1

[8] = biological target: T3, PCTK1 (Homo sapiens, UniProt Q00536)
T3 construct: gene CDK16

[9] = biological target: DDR2 (Homo sapiens, UniProt Q16832)
[10] = biological target: T4, JNK2 (Homo sapiens, UniProt P45984)
T4 construct: gene MAPK9

[11] = biological target: PIK3CB (Homo sapiens, UniProt P42338)
[12] = biological target: PRKX (Homo sapiens, UniProt P51817)
[13] = biological target: CSNK1A1 (Homo sapiens, UniProt P48729)
[14] = biological target: PIK3CA(Q546K) (Homo sapiens, UniProt P42336, Q546K)
[15] = biological target: FYN (Homo sapiens, UniProt P06241)
[16] = biological target: PRKG1 (Homo sapiens, UniProt Q13976)
[17] = biological target: GRK1 (Homo sapiens, UniProt Q15835)
[18] = biological target: EPHA2 (Homo sapiens, UniProt P29317)
[19] = biological target: ROS1 (Homo sapiens, UniProt P08922)
[20] = biological target: ITK (Homo sapiens, UniProt Q08881)
[21] = biological target: AURKC (Homo sapiens, UniProt Q9UQB9)
[22] = biological target: T5, p38-alpha (Homo sapiens, UniProt Q16539)
T5 construct: gene MAPK14

Chain of PIK3CA(Q546K) (P42336 whole entry Q546K): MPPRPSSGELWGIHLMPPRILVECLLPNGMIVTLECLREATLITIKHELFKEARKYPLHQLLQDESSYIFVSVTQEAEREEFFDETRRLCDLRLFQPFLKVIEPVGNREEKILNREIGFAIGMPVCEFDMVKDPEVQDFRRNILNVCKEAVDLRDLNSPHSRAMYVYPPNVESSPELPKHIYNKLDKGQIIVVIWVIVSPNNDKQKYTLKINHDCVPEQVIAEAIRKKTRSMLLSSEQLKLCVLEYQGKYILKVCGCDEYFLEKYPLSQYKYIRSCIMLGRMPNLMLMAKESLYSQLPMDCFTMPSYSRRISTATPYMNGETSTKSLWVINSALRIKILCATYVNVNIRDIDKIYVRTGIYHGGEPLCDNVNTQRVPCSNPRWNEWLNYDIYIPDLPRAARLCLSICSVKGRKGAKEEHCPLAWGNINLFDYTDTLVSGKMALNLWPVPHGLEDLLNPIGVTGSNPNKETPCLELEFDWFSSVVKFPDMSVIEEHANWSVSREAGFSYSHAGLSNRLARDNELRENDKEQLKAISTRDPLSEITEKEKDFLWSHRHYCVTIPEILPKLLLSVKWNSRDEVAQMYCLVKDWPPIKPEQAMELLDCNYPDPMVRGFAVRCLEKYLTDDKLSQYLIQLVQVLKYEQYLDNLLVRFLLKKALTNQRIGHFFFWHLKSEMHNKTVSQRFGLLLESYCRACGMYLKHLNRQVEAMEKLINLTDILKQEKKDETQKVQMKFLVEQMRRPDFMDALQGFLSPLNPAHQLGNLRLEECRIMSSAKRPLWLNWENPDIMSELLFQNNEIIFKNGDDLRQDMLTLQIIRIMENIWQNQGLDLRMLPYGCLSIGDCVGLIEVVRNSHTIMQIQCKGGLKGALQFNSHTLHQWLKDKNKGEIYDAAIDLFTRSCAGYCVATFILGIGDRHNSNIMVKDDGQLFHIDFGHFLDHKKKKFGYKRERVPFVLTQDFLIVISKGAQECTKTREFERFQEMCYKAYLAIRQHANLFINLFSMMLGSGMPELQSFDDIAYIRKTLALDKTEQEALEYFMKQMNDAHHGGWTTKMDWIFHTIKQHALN
T3 sequence (Q00536 whole entry): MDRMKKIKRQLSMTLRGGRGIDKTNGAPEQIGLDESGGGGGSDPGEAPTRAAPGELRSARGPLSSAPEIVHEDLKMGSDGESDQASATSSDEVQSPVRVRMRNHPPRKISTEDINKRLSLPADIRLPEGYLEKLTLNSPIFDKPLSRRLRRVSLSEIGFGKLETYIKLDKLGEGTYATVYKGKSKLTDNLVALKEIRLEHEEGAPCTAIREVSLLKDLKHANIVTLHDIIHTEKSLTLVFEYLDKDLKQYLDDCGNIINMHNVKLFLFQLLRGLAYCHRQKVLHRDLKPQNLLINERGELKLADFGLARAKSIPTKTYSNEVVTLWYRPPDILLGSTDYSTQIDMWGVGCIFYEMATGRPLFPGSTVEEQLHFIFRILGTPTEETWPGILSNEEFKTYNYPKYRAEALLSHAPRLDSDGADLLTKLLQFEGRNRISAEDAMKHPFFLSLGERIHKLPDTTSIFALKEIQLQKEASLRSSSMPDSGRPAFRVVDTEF
Chain of AURKC (Q9UQB9 whole entry): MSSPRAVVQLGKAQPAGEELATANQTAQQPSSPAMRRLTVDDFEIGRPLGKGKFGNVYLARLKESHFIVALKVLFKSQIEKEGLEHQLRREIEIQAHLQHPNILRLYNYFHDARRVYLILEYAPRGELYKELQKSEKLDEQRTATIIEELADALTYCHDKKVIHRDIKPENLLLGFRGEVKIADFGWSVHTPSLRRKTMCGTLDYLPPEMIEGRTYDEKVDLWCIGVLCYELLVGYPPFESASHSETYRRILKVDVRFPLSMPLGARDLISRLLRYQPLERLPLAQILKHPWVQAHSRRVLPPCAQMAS
Chain of GRK1 (Q15835 whole entry): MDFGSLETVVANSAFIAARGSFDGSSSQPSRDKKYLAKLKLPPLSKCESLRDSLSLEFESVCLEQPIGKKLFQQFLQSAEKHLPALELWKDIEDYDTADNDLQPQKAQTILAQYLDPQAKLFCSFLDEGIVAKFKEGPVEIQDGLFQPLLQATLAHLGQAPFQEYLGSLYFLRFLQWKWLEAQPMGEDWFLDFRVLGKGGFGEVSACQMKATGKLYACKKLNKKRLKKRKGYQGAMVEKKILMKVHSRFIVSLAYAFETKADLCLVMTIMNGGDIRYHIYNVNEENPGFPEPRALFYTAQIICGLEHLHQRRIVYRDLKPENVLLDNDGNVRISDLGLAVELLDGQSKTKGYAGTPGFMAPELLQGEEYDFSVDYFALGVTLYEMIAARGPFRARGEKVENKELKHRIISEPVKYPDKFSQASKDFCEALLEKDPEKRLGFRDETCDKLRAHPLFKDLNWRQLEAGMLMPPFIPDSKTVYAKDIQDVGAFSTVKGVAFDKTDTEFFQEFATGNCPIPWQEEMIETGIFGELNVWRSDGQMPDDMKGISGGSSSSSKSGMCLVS
Chain of PRKX (P51817 whole entry): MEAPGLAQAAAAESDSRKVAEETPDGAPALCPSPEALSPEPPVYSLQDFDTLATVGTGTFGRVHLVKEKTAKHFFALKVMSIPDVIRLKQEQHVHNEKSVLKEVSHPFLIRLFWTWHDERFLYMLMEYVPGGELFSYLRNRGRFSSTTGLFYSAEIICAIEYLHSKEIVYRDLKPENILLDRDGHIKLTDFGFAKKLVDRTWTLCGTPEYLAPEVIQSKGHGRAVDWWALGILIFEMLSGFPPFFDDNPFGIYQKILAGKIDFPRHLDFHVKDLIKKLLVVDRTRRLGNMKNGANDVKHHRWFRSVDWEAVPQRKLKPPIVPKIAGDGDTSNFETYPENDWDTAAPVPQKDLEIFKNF
T1 sequence (O43283 whole entry): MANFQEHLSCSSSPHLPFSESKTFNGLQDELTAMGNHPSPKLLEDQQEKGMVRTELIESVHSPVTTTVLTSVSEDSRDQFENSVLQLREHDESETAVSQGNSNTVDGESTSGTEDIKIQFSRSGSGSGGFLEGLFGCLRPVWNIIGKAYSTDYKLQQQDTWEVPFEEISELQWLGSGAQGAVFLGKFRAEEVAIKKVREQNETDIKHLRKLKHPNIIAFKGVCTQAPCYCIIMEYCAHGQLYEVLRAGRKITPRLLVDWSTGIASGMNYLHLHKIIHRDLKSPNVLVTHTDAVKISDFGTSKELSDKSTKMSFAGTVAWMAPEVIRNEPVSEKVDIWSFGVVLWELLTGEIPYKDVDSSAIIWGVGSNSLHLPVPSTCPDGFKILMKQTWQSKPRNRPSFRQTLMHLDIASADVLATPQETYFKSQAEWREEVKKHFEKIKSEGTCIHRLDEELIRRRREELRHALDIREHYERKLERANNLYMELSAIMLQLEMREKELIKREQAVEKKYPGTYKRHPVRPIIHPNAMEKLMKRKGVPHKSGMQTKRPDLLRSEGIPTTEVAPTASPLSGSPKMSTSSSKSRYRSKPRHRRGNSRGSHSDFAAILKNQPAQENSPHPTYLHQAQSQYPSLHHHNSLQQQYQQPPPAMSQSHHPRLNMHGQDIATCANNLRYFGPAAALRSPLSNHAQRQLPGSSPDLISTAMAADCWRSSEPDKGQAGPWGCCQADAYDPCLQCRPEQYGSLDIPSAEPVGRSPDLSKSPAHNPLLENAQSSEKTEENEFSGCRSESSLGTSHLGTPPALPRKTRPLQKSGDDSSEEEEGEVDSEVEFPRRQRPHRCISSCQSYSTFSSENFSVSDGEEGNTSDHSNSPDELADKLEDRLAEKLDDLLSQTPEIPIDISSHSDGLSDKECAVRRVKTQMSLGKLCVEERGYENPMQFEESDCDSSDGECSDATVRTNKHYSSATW
Chain of NEK5 (Q6P3R8 whole entry): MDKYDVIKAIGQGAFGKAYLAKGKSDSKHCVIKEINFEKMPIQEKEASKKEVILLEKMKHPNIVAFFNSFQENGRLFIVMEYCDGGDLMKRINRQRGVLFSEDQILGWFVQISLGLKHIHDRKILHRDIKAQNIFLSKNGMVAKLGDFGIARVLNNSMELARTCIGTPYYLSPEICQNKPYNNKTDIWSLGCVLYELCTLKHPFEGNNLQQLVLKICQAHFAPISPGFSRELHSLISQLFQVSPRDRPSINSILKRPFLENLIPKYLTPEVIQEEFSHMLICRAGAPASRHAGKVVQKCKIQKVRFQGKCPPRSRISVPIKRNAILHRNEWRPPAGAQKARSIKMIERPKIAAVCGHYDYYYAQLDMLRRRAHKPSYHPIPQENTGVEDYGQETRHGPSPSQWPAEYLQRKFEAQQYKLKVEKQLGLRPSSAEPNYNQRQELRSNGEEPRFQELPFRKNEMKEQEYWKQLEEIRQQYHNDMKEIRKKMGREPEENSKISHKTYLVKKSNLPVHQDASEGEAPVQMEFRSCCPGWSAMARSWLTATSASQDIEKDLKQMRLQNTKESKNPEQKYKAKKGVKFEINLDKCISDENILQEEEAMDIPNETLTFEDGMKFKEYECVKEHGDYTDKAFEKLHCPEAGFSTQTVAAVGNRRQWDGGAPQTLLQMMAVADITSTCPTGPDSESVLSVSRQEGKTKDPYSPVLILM
Chain of FYN (P06241 whole entry): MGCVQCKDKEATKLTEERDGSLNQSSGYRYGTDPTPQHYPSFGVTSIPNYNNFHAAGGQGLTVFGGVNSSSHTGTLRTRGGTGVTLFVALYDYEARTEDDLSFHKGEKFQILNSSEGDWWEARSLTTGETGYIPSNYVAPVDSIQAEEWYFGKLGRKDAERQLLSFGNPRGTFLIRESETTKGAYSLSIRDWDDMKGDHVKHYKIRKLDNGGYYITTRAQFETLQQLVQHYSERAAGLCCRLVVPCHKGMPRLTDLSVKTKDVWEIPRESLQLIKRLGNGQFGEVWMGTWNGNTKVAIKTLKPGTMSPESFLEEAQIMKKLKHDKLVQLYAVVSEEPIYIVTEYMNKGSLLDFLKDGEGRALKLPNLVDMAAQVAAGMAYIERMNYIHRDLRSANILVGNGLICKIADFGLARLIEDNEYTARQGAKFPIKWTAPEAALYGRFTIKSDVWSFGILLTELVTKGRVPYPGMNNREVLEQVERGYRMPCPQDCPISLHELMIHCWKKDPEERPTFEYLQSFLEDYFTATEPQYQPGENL

SMILES: COc1cc2c(cn1)N(C)C(=O)[C@@H](NC(=O)c1nc3n(n1)[C@H](c1ccccc1)CC3)CC2 [GNE684, (S)-N-((S)-7-methoxy-1-methyl-2-oxo-2,3,4,5-tetrahydro-1H-pyrido[3,4-b]azepin-3-yl)-5-phenyl-6,7-dihydro-5H-pyrrolo[1,2-b][1,2,4]triazole-2-carboxamide]
- remaining binding at 10 µM [1]: 98%
- remaining binding at 10 µM [2]: 100%
- remaining binding at 10 µM [3]: 100%
- remaining binding at 10 µM [4]: 100%
- remaining binding at 10 µM [5]: 99%
- remaining binding at 10 µM [6]: 97%
- remaining binding at 10 µM [7]: 87%
- remaining binding at 10 µM [8]: 82%
- remaining binding at 10 µM [9]: 100%
- remaining binding at 10 µM [10]: 98%
- remaining binding at 10 µM [11]: 100%
- remaining binding at 10 µM [12]: 99%
- remaining binding at 10 µM [13]: 87%
- remaining binding at 10 µM [14]: 49%
- remaining binding at 10 µM [15]: 100%
- remaining binding at 10 µM [16]: 81%
- remaining binding at 10 µM [17]: 67%
- remaining binding at 10 µM [18]: 97%
- remaining binding at 10 µM [19]: 96%
- remaining binding at 10 µM [20]: 100%
- remaining binding at 10 µM [21]: 93%
- remaining binding at 10 µM [22]: 95%
